This passage reports IC50 results from patent US20240308995A1, “O-GLYCOPROTEIN-2-ACETAMIDO-2-DEOXY-3-D-GLUCOPYRANOSIDASE INHIBITORS” (BIOGEN MA INC., priority 2018, published 2024).

Assay [1] deals with OGA (S400 O-GLCNAC), HEK-293T cells transfected with Tau-V5 (Homo sapiens (Human), UniProt O60502). In words: Cellular OGA-Tau MSD Assay. The class given is cell-based. The protocol:
HEK-293T cells were transfected with […] and Tau-V5 plasmids using Lipofectamine and grown overnight. Next day, the cells were collected and re-plated at 1×10^5 cells per well in 96 well plates. Cells were incubated for 4 hr at 37° C., before compounds were added at 1 uM, with 3-fold dilutions in a 10-point titration. Cell plates were incubated with compounds overnight at 37° C. The next day media was removed from wells by gentle aspiration and 120 ul of 1× Cell Lysis buffer mixed with protease and phosphatase cocktail added to each well. A freeze thaw was performed at -80° C., then mixed before transferring 50 ul to MSD plates coated with V5-tag antibody to capture Tau. MSD Plates were incubated overnight at 4° C., on a plate shaker. The following day, plates were washed and incubated with Tau-[…]-GlcNAc antibody for 2 hr and then developed with rabbit Sulfo-tag antibody. Final read out was carried out on an MSD 600 reader. The data was analyzed using Graph Pad or Genedata, the data was normalized and % activity versus log of compound concentration was plotted. The IC50 values were obtained from a 4 parameter fit.

Assay [2] addresses Recombinant full length human OGA enzyme (Homo sapiens (Human), UniProt O60502). In words: OGA Enzyme Inhibition Biochemical Assay. The method, then:
Recombinant full length human OGA enzyme was purchased from Origene. 4-MUGlcNAc substrate was purchased from Sigma. All other reagents were purchased from Sigma or Fisher. Assay buffer consists of the McIlvaine buffer system, pH 6.4 (0.2M Na2HPO4 mixed with 0.1M citric acid) and 0.01% BSA. […] Reactions were incubated for 90 minutes at room temperature and quenched with 40 μl of 3M glycine, pH 10 and read on a Perkin Elmer Envision plate reader (Ex: 355 nm/Em: 460 nm). Compounds were tested with a 10-point dose-response starting from 20 μM with a 4-fold dilution. Data was fit using GraphPad Prism using a 4-parameter fit with variable slope.

The mark [3] stands for this setting: HEK-293T cells, Tau-S400-GlcNAc MSD readout.
Setting [4] is: 1 nM OGA, 100 μM 4-MUGlcNAc, pH 6.4.
Where [5] appears, read: repeated assay, value marked with asterisk (*).

pIC50: −log10 of the molar value. Structures can show the parent of a compound that is named as a salt. Bounds are passed on as bounds.

Chain of OGA (S400 O-GLCNAC), HEK-293T cells transfected with Tau-V5 (O60502 whole entry): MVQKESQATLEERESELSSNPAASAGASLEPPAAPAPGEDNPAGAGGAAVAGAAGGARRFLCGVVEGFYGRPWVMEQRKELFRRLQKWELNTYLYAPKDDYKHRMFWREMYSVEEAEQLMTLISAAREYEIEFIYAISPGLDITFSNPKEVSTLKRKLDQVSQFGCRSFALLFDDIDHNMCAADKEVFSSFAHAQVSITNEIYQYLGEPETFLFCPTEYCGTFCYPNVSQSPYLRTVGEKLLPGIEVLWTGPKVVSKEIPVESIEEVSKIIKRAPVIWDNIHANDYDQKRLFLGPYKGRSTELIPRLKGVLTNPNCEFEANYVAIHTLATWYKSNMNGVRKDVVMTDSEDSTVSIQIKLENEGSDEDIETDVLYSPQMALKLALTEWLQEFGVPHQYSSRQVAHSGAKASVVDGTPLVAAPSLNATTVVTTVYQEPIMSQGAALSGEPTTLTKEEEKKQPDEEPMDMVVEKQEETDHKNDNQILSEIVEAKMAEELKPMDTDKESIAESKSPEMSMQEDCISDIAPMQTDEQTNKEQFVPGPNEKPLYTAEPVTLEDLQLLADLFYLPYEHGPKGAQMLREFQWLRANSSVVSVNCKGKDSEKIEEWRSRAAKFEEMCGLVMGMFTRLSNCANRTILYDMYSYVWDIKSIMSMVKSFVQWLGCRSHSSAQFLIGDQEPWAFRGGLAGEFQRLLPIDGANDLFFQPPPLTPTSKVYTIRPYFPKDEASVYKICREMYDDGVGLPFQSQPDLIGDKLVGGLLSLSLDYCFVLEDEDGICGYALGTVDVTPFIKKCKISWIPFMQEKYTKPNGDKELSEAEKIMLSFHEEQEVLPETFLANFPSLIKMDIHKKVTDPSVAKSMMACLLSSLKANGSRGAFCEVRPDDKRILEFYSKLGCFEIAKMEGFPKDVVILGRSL
Chain of Recombinant full length human OGA enzyme (O60502 whole entry): as above

As a reminder, the pIC50 is the IC50 on a negative log10 scale, so that one unit is a factor of ten. As for `[2H]C([2H])([2H])Oc1cc(O[C@@H]2C[C@H](C)N(Cc3sc(NC(C)=O)nc3F)C2)ncn1` (single isomer, unassigned) [Example 1-155], the values for the pIC50 in assay [1] (setting [3]) and in assay [2] (setting [4]) were 8.70 and above 9.00, respectively.
For `[2H]C([2H])([2H])C(=O)Nc1nc(F)c(CN2C[C@H](Oc3cc(OC)ncn3)C[C@@H]2C)s1` (single isomer, unassigned) [Example 1-157, trifluoroacetate salt], in that order: 8.52 and above 9.00.
In the case of `[2H]C(c1sc(NC(C)=O)nc1F)N1C[C@H](Oc2cc(OC)ncn2)C[C@@H]1C` (single isomer, unassigned) [Example 1-159], the pIC50 is 9.00 in assay [1] (setting [3]) and above 9.00 in assay [2] (setting [4]).
For `[2H]C([2H])(c1sc(NC(C)=O)nc1F)N1C[C@H](Oc2cc(OC)ncn2)C[C@@H]1C` (single isomer, unassigned) [Example 1-161], in that order: 8.40 and above 9.00.
Take `[2H][C@@]1(Oc2cc(OC)ncn2)C[C@H](C)N(Cc2sc(NC(C)=O)nc2F)C1` (single isomer, unassigned) [Example 1-165]: the pIC50 in assay [1] (setting [3]) was 8.70; in assay [2] (setting [4]), above 9.00.
With `CC(=O)Nc1ncc(CN2C[C@H](Oc3ccc(F)cn3)CC[C@@H]2C)s1` [Example 1-4, N-(5-(((2S,5R)-5-((5-fluoropyridin-2-yl)oxy)-2-methylpiperidin-1-yl)methyl)thiazol-2-yl)acetamide], the values for the pIC50 in assay [1] (setting [3]) and in assay [2] (setting [4]) were 8.22 and 8.92, respectively.
On the same counts, the results for `CC(=O)Nc1ncc(CN2C[C@@H](Oc3ccc(F)cn3)CC[C@@H]2C)s1` [Example 1-5, N-(5-(((2S,5S)-5-((5-fluoropyridin-2-yl)oxy)-2-methylpiperidin-1-yl)methyl)thiazol-2-yl)acetamide] are 8.40 and 8.80.
As to `CC(=O)Nc1ncc(CN2CC[C@H](Oc3ccc(F)cn3)C2)s1` [Example 1-7, (S)—N-(5-((3-((5-fluoropyridin-2-yl)oxy)pyrrolidin-1-yl)methyl)thiazol-2-yl)acetamide], the negative-log IC50 (pIC50) was below 6.00 in assay [2] (setting [4]) and 5.70 in assay [2] (setting [5]).
`COc1ncnc(O[C@@H]2C[C@H](C)N(Cc3cnc(NC(C)=O)s3)C2)c1F` [Example 1-19, N-(5-(((2S,4R)-4-((5-fluoro-6-methoxypyrimidin-4-yl)oxy)-2-methylpyrrolidin-1-yl)methyl)thiazol-2-yl)acetamide]: the pIC50 was 8.22 in assay [1] (setting [5]) and 8.92 in assay [2] (setting [4]).
Regarding `COc1cc(O[C@@H]2C[C@H](C)N(Cc3sc(NC(C)=O)nc3F)C2)ncn1` [Example 1-22, N-(4-Fluoro-5-(((2S,4R)-4-((6-methoxypyrimidin-4-yl)oxy)-2-methylpyrrolidin-1-yl)methyl)thiazol-2-yl)acetamide], the results for the pIC50 in assay [1] (setting [3]) and in assay [2] (setting [4]) were 8.70 and above 9.00, respectively.
On the same counts, the results for `CC(=O)Nc1nc(F)c(CN2C[C@H](Oc3cc(N4CCC4)ncn3)C[C@@H]2C)s1` [Example 1-24, N-(5-(((2S,4R)-4-((6-(azetidin-1-yl)pyrimidin-4-yl)oxy)-2-methylpyrrolidin-1-yl)methyl)-4-fluorothiazol-2-yl)acetamide] are 9.00 and above 9.00.
As to `CC(=O)Nc1nc(F)c(CN2C[C@H](Oc3cc(N4CC(F)C4)ncn3)C[C@@H]2C)s1` [Example 1-25, N-(4-fluoro-5-(((2S,4R)-4-((6-(3-fluoroazetidin-1-yl)pyrimidin-4-yl)oxy)-2-methylpyrrolidin-1-yl)methyl)thiazol-2-yl)acetamide], the pIC50 in assay [1] (setting [3]) and in assay [2] (setting [4]) was above 9.00 in each case.
For `CC(=O)Nc1nc(F)c(CN2C[C@H](Oc3cc(N4CC(F)(F)C4)ncn3)C[C@@H]2C)s1` [Example 1-26, N-(5-(((2S,4R)-4-((6-(3,3-difluoroazetidin-1-yl)pyrimidin-4-yl)oxy)-2-methylpyrrolidin-1-yl)methyl)-4-fluorothiazol-2-yl)acetamide], the values for the pIC50 in assay [1] (setting [3]) and in assay [2] (setting [4]) were 9.00 and above 9.00, respectively.
For the compound `COc1cc(O[C@H]2CCN(Cc3sc(NC(C)=O)nc3F)C2)ncn1` [Example 1-27, (S)—N-(4-fluoro-5-((3-((6-methoxypyrimidin-4-yl)oxy)pyrrolidin-1-yl)methyl)thiazol-2-yl)acetamide], the pIC50 in assay [2] (setting [4]) was 6.07.
As to `COc1cc(O[C@@H]2C[C@@H](C)N(Cc3sc(NC(C)=O)nc3F)C2)ncn1` [Example 1-29, N-(4-fluoro-5-(((2R,4R)-4-((6-methoxypyrimidin-4-yl)oxy)-2-methylpyrrolidin-1-yl)methyl)thiazol-2-yl)acetamide], the values for the negative logarithm of the IC50 (pIC50) in assay [1] (setting [3]) and in assay [2] (setting [4]) were 7.01 and 7.24, respectively.
As for `COc1cc(O[C@H]2C[C@H](C)N(Cc3sc(NC(C)=O)nc3F)C2)ncn1` [Example 1-30, N-(4-fluoro-5-(((2S,4S)-4-((6-methoxypyrimidin-4-yl)oxy)-2-methylpyrrolidin-1-yl)methyl)thiazol-2-yl)acetamide], the pIC50 in assay [1] (setting [3]) is 7.68; in assay [2] (setting [4]) it was 7.82.
Turning to `COc1cc(O[C@H]2C[C@@H](C)N(Cc3sc(NC(C)=O)nc3F)C2)ncn1` [Example 1-31, N-(4-fluoro-5-(((2R,4S)-4-((6-methoxypyrimidin-4-yl)oxy)-2-methylpyrrolidin-1-yl)methyl)thiazol-2-yl)acetamide], the figures for the pIC50 in assay [1] (setting [3]) and in assay [2] (setting [4]) were below 6.00 and 5.54, respectively.
Consider `COc1cc(O[C@H]2CCN(Cc3cnc(NC(C)=O)s3)C2)ncn1` [Example 1-36, (S)—N-(5-((3-((6-methoxypyrimidin-4-yl)oxy)pyrrolidin-1-yl)methyl)thiazol-2-yl)acetamide], for which, in assay [2] (setting [4]), the negative-log IC50 (pIC50) was 5.77.
Take `COc1cc(O[C@@H]2CCN(Cc3cnc(NC(C)=O)s3)C2)ncn1` [Example 1-37, (R)—N-(5-((3-((6-methoxypyrimidin-4-yl)oxy)pyrrolidin-1-yl)methyl)thiazol-2-yl)acetamide]: the pIC50 is 7.57 in assay [1] (setting [3]) and 7.44 in assay [2] (setting [4]).
For the compound `CC(=O)Nc1ncc(CN2C[C@@H](Oc3cc(C)nc(C)c3)CC[C@@H]2C)s1` [Example 1-66, N-(5-(((2S,5S)-5-((2,6-dimethylpyridin-4-yl)oxy)-2-methylpiperidin-1-yl)methyl)thiazol-2-yl)acetamide], the pIC50 in assay [1] (setting [3]) was 8.40; in assay [2] (setting [4]) it was above 9.00.
With `CC(=O)Nc1ncc(CN2C[C@H](Oc3cc(C)nc(C)c3)CC[C@@H]2C)s1` [Example 1-67, N-(5-(((2S,5R)-5-((2,6-dimethylpyridin-4-yl)oxy)-2-methylpiperidin-1-yl)methyl)thiazol-2-yl)acetamide], the values for the pIC50 in assay [1] (setting [3]) and in assay [2] (setting [4]) were 8.52 and above 9.00, respectively.
As to `CC(=O)Nc1ncc(CN2C[C@H](Oc3cc(=O)n(C)cn3)C[C@@H]2C)s1` [Example 1-70, N-(5-(((2S,4R)-2-methyl-4-((1-methyl-6-oxo-1,6-dihydropyrimidin-4-yl)oxy)pyrrolidin-1-yl)methyl)thiazol-2-yl)acetamide], the pIC50 in assay [1] (setting [3]) is 8.30.
With `COc1cncnc1O[C@@H]1C[C@H](C)N(Cc2cnc(NC(C)=O)s2)C1` [Example 1-74], the pIC50 in assay [1] (setting [3]) is 7.89; in assay [2] (setting [4]) it was 8.19.
Consider `CC(=O)Nc1nc(F)c(CN2C[C@H](Oc3cc(C)c(F)cn3)C[C@@H]2C)s1` [Example 1-117, N-(4-fluoro-5-(((2S,4R)-4-((5-fluoro-4-methylpyridin-2-yl)oxy)-2-methylpyrrolidin-1-yl)methyl)thiazol-2-yl)acetamide], for which, in assay [2] (setting [4]), the negative-log IC50 (pIC50) is above 9.00.
For the compound `COCCOc1cnc(O[C@@H]2C[C@H](C)N(Cc3sc(NC(C)=O)nc3F)C2)cn1` [Example 1-144, N-(4-fluoro-5-(((2S,4R)-4-((5-(2-methoxyethoxy)pyrazin-2-yl)oxy)-2-methylpyrrolidin-1-yl)methyl)thiazol-2-yl)acetamide], the pIC50 in assay [2] (setting [4]) is above 9.00.
With `COCCN(C)c1ccnc(O[C@@H]2C[C@H](C)N(Cc3sc(NC(C)=O)nc3F)C2)c1` [Example 1-145, N-(4-fluoro-5-(((2S,4R)-4-((4-((2-methoxyethyl) (methyl)amino)pyridin-2-yl)oxy)-2-methylpyrrolidin-1-yl)methyl)thiazol-2-yl)acetamide], the pIC50 in assay [2] (setting [4]) was above 9.00.
In the case of `CC(=O)Nc1nc(F)c(CN2C[C@H](Oc3ccc(N4CCOCC4)cn3)C[C@@H]2C)s1` [Example 1-146, N-(4-fluoro-5-(((2S,4R)-2-methyl-4-((5-morpholinopyridin-2-yl)oxy)pyrrolidin-1-yl)methyl)thiazol-2-yl)acetamide], in assay [2] (setting [4]), the pIC50 is above 9.00.
Regarding `COCCOc1ccnc(O[C@@H]2C[C@H](C)N(Cc3sc(NC(C)=O)nc3F)C2)c1` [Example 1-147, N-(4-fluoro-5-(((2S,4R)-4-((4-(2-methoxyethoxy)pyridin-2-yl)oxy)-2-methylpyrrolidin-1-yl)methyl)thiazol-2-yl)acetamide], the pIC50 in assay [2] (setting [4]) was above 9.00.
